Literature values as cited in patent US8465912B2, “Methods for the identification of agents that inhibit mesenchymal-like tumor cells or their formation” (OSI Pharmaceuticals, LLC, priority 2009, dated 2013).

Experiments:
[1] = system: advanced, treatment-refractory NSCLC; conditions: patients with advanced; cited from earlier work
[2] = system: pancreatic cancer; conditions: in combination with gemcitabine; cited from earlier work
[3] = system: carcinoma cells; conditions: cited from earlier work

Q: Which “Clinical outcome, phase III monotherapy” value [1] does the source give for `C#Cc1cccc(Nc2ncnc3cc(OCCOC)c(OCCOC)cc23)c1` [erlotinib, [6,7-bis(2-methoxyethoxy)-4-quinazolin-4-yl]-(3-ethynylphenyl) amine] here?
A: significantly prolonged survival, delayed disease progression and delayed worsening of lung cancer-related symptoms

Q: And the “Survival, phase III first-line” value [2]?
A: improves survival

Q: What about the “Cellular sensitivity after EMT-like transition” value [3] of the same compound?
A: cellular insensitivity
